# In EP2608671B1, “COMPOUNDS FOR TREATMENT OF CANCER” (Gtx, Inc., priority 2010, dated 2012):
# Where two headings read alike, the source gives them in different places.
# Tests used:
# B16-F1 = test: SRB cell growth inhibition (cytotoxicity) assay; assay type: cell-based, mouse
# Source text: (§1) The only compounds which belong to the invention are the ones falling under the scope of formula (XI).
# A375 = test: SRB cell growth inhibition (cytotoxicity) assay; assay type: cell-based, human
# WM-164 = test: SRB cell growth inhibition (cytotoxicity) assay; assay type: cell-based, human; conditions: Homo sapiens
# PC-3 = test: cells; conditions: Homo sapiens
# Source text: as §1
# Cells were stained with SRB solution.
# Cells. […] Cells between the third and fifth passages were used for experiments.
# Cell growth inhibition studies. […] Cells were stained with sulphorhodamine B (SRB) solution.
# DU 145 = test: cells; conditions: Homo sapiens
# LNCaP = test: cells; conditions: Homo sapiens
# PPC-1 = test: cells; conditions: Homo sapiens
# [1] = Mus musculus, B16-F1; read-out: IC50 ± SEM (nM), B16-F1
# [2] = Homo sapiens, A-375, 96 h; read-out: IC50 ± SEM (nM), A375
# [3] = WM164, SRB assay, 96 h, Table 2, read-out: IC50 ± SEM (nM), WM-164
# [4] = PC-3, 96 h, read-out: IC50 ± SEM (nM), PC-3
# [5] = DU-145, 96 h, read-out: IC50 ± SEM (nM), DU 145
# [6] = 96 h, read-out: IC50 ± SEM (nM), LNCaP
# [7] = PPC-1, 96 h, read-out: IC50 ± SEM (nM), PPC-1
# [8] = Mus musculus, B16-F1, read-out: IC50 ± SEM (nM), B16-F1
# [9] = Homo sapiens, A-375, 96 h, read-out: IC50 ± SEM (nM), A375
# [10] = WM164, 96 h, read-out: IC50 ± SEM (nM), WM-164
# [11] = Mus musculus; B16-F1 melanoma cells, 48 h, SRB; read-out: IC50 ± SEM (nM) B16-F1
# [12] = Homo sapiens, A-375; A375 melanoma cells, 48 h, SRB; read-out: IC50 ± SEM (nM) A375
# [13] = WM164 melanoma cells, 48 h, SRB, read-out: IC50 ± SEM (nM) WM164
# [14] = DU-145, 96 h, read-out: IC50 ± SEM (nM) Du 145
SMILES,IC50 (B16-F1; [1]),IC50 (A375; [2]),IC50 (WM-164; [3]),IC50 (PC-3; [4]),IC50 (DU 145; [5]),IC50 (LNCaP; [6]),IC50 (PPC-1; [7]),IC50 (B16-F1; [11]),IC50 (A375; [12]),IC50 (WM-164; [13]),also measured
"COc1cc(C(=O)c2cc(-c3ccccc3)n[nH]2)cc(OC)c1OC [1k, (3-Phenyl-1H-pyrazol-5-yl)(3,4,5-trimethoxyphenyl)methanone]",,,,,,,,,,,"IC50 (B16-F1; Mus musculus, B16-F1; Table 6; read-out: IC50 ±SEM (nM), B16-F1): 245 nM; IC50 (A375; Homo sapiens, A-375; Table 6; read-out: IC50 ±SEM (nM), A375): 100 nM; IC50 (WM-164; WM164, Table 6, read-out: IC50 ±SEM (nM), WM164): 220 nM; IC50 (PC-3; PC-3, read-out: IC50 ±SEM (nM), PC-3): 101 nM; IC50 (DU 145; DU-145, read-out: IC50 ±SEM (nM), DU 145): 140 nM; IC50 (LNCaP; read-out: IC50 ±SEM (nM), LNCaP): 101 nM; IC50 (PPC-1; PPC-1, read-out: IC50 ±SEM (nM), PPC-1): 84 nM"
"COc1cc(C(=C(C)C)c2csc(-c3ccccc3)n2)cc(OC)c1OC [2a, 4-(2-Methyl-1-(3,4,5-trimethoxyphenyl)prop-1-enyl)-2-phenylthiazole]",3800 ± 1300 nM,1900 ± 800 nM,3700 ± 1200 nM,2470 nM,2650 nM,1390 nM,2040 nM,,,,
"COc1cc(/C(=C\C#N)c2csc(-c3ccccc3)n2)cc(OC)c1OC [2c-cis, (E)-3-(2-phenylthiazol-4-yl)-3-(3,4,5-trimethoxyphenyl)acrylonitrile]",,,,~10000 nM,~10000 nM,1990 nM,~10000 nM,,,,IC50 (B16-F1; [8]): 1200 ± 300 nM; IC50 (A375; [9]): 1200 ± 400 nM; IC50 (WM-164; [10]): 1000 ± 200 nM
"COc1cc(/C(=C/C#N)c2csc(-c3ccccc3)n2)cc(OC)c1OC [2c-trans, (Z)-3-(2-phenylthiazol-4-yl)-3-(3,4,5-trimethoxyphenyl)acrylonitrile]",,,,890 nM,2280 nM,580 nM,900 nM,,,,IC50 (B16-F1; [8]): 5400 ± 2100 nM; IC50 (A375; [9]): 4600 ± 1500 nM; IC50 (WM-164; [10]): 4900 ± 1300 nM
"CO/N=C(/c1cc(OC)c(OC)c(OC)c1)c1csc(-c2ccccc2)n1 [2f-cis, (Z)-(2-Phenylthiazol-4-yl)(3,4,5-trimethoxyphenyl)methanone O-methyl oxime]",3800 ± 1600 nM,2900 ± 1200 nM,3400 ± 1800 nM,> 10000 nM,> 10000 nM,> 10000 nM,> 10000 nM,,,,
"CO/N=C(\c1cc(OC)c(OC)c(OC)c1)c1csc(-c2ccccc2)n1 [2f-trans, (E)-(2-Phenylthiazol-4-yl)(3,4,5-trimethoxyphenyl)methanone O-methyl oxime]",> 10000 nM,> 10000 nM,> 10000 nM,> 10000 nM,> 10000 nM,> 10000 nM,> 10000 nM,,,,
"COc1cc(-c2csc(-c3ccccc3)n2)cc(OC)c1OC [2i, 2-Phenyl-4-(3,4,5-trimethoxyphenyl)thiazole]",> 10000 nM,> 10000 nM,> 10000 nM,> 10000 nM,> 10000 nM,> 10000 nM,> 10000 nM,,,,
"COc1cc(/C=C/c2csc(-c3ccccc3)n2)cc(OC)c1OC [3b, (E)-2-Phenyl-4-(3,4,5-trimethoxystyryl)thiazole]",,,,> 10000 nM,> 10000 nM,> 10000 nM,> 10000 nM,,,,IC50 (B16-F1; [8]): 32800 ± 13000 nM; IC50 (A375; [9]): > 10000 nM; IC50 (WM-164; [10]): 30800 ± 12000 nM
"COc1cc(Sc2cccc(-c3ccccc3)c2)cc(OC)c1OC [4a, Biphenyl-3-yl(3,4,5-trimethoxyphenyl)sulfane]",2400 ± 900 nM,11600 ± 400 nM,2000 nM,> 10000 nM,> 10000 nM,300 ± 200 nM,2300 ± 100 nM,,,,
"COc1cc(S(=O)(=O)c2cccc(-c3ccccc3)c2)cc(OC)c1OC [4b, 3-(3,4,5-Trimethoxyphenylsulfonyl)biphenyl]",> 10000 nM,> 10000 nM,> 10000 nM,> 10000 nM,> 10000 nM,> 10000 nM,> 10000 nM,,,,
"COc1cc([S+]([O-])c2cccc(-c3ccccc3)c2)cc(OC)c1OC (stereo not drawn) [4c, 3-(3,4,5-Trimethoxyphenylsulfinyl)biphenyl]",> 10000 nM,> 10000 nM,> 10000 nM,> 10000 nM,> 10000 nM,> 10000 nM,> 10000 nM,,,,
"COc1cc(NS(=O)(=O)c2cccc(-c3ccccc3)c2)cc(OC)c1OC [4d, N-(3,4,5-Trimethoxyphenyl)biphenyl-3-sulfonamide]",> 10000 nM,> 10000 nM,> 10000 nM,> 10000 nM,> 10000 nM,> 10000 nM,> 10000 nM,,,,
"COc1ccc(C(=O)c2cn(S(=O)(=O)c3ccccc3)c(-c3ccccc3)n2)cc1 [11ab, (4-methoxyphenyl)(2-phenyl-1-(phenylsulfonyl)-1H-imidazol-4-yl)methanone]",,,,> 10000 nM,,> 10000 nM,> 10000 nM,> 10000 nM,> 10000 nM,> 10000 nM,IC50 (DU 145; [14]): > 10000 nM
"COc1cccc(C(=O)c2cn(S(=O)(=O)c3ccccc3)c(-c3ccccc3)n2)c1 [11ac, (3-methoxyphenyl)(2-phenyl-1-(phenylsulfonyl)-1H-imidazol-4-yl)methanone]",,,,> 10000 nM,,> 10000 nM,> 10000 nM,> 10000 nM,> 10000 nM,> 10000 nM,IC50 (DU 145; [14]): > 10000 nM
"O=C(c1ccc(F)cc1)c1cn(S(=O)(=O)c2ccccc2)c(-c2ccccc2)n1 [11af, (4-fluorophenyl)(2-phenyl-1-(phenylsulfonyl)-1H-imidazol-4-yl)methanone]",,,,2230 nM,,573 nM,575 nM,946 ± 86 nM,630 ± 72 nM,596 ± 61 nM,IC50 (DU 145; [14]): 846 nM
"Cc1ccc(C(=O)c2cn(S(=O)(=O)c3ccccc3)c(-c3ccccc3)n2)cc1 [11ah, (2-phenyl-1-(phenylsulfonyl)-1H-imidazol-4-yl)(p-tolyl)methanone]",,,,> 10000 nM,,> 10000 nM,> 10000 nM,> 10000 nM,> 10000 nM,> 10000 nM,IC50 (DU 145; [14]): > 10000 nM
"Cc1ccc(-c2nc(C(=O)c3ccc(F)cc3)cn2S(=O)(=O)c2ccccc2)cc1 [11db, (4-fluorophenyl)(1-(phenylsulfonyl)-2-(p-tolyl)-1H-imidazol-4-yl)methanone]",,,,80 ± 1 nM,,55 ± 3 nM,57 ± 1 nM,287 ± 31 nM,113 ± 14 nM,107 ± 14 nM,IC50 (DU 145; [14]): 80 ± 1 nM
"COc1cc(C(=O)c2cn(S(=O)(=O)c3ccccc3)c(-c3cc(OC)c(OC)c(OC)c3)n2)cc(OC)c1OC [11ea, (1-(phenylsulfonyl)-2-(3,4,5-trimethoxyphenyl)-1H-imidazol-4-yl)(3,4,5-trimethoxyphenyl)methanone]",,,,> 10000 nM,,> 10000 nM,> 10000 nM,> 10000 nM,> 10000 nM,> 10000 nM,IC50 (DU 145; [14]): > 10000 nM
"O=C(c1cc(O)c(O)c(O)c1)c1c[nH]c(-c2ccc(O)c(O)c2)n1 [13ha, (2-(3,4-dihydroxyphenyl)-1H-imidazol-4-yl)(3,4,5-trihydroxyphenyl)methanone]",,,,,,,,> 10000 nM,> 10000 nM,> 10000 nM,
"COc1cc(C(=O)[C@@H]2CSC(c3ccc(O[Si](C)(C)C(C)(C)C)cc3)=N2)cc(OC)c1OC [58a, (R)-(2-(4-(tert-Butyldimethylsilyloxy)phenyl)-4,5-dihydrothiazol-4-yl)(3,4,5-trimethoxyphenyl)methanone]",,,,183 ± 24 nM,434 ± 30 nM,549 nM,246 ± 8 nM,,,,IC50 (B16-F1; [8]): 500 ± 200 nM; IC50 (A375; [9]): 700 ± 300 nM
"COc1cc(C(=O)c2csc(-c3cc4ccccc4[nH]3)n2)cc(OC)c1OC [62a, (2-(1H-indol-2-yl)thiazol-4-yl)(3,4,5-trimethoxyphenyl)methanone]",,,,24 nM,32 nM,28 nM,28 nM,,,,IC50 (B16-F1; [8]): 43 ± 21 nM; IC50 (A375; [9]): 19 ± 9 nM
"COc1cc(C(=O)c2csc(-c3ccc(CNC(=O)OC(C)(C)C)cc3)n2)cc(OC)c1OC [68a, tert-Butyl 4-(4-(3,4,5-trimethoxybenzoyl)thiazol-2-yl)benzylcarbamate]",2900 ± 400 nM,7900 ± 500 nM,,3100 nM,4400 nM,2600 nM,2700 nM,,,,
"CC(C)C[C@H](NC(=O)[C@H](Cc1ccccc1)NC(=O)c1cnccn1)B(O)O [Bortezomib, reference compound]",,,,,,,,,,,"IC50 (B16-F1; Mus musculus, B16-F1, read-out: IC50 ± SEM (nM) (n=3), B16-F1; Table 14A): 24 ± 2 nM; IC50 (A375; Homo sapiens, A-375, read-out: IC50 ± SEM (nM) (n=3), A375; Table 14A): 8 ± 1 nM; IC50 (WM-164; WM164, read-out: IC50 ± SEM (nM) (n=3), WM-164, Table 14A): 8 ± 1 nM"
